Reference: US20150191469A1, “COMPOUNDS AND METHODS FOR TREATING HIV” (priority 2012, published 2015)

These molecules were tested on HIV (assay: MT4 assay: antiviral HIV activity (cell protection, cell titer glo readout at 96 hours)). Details: Human immunodeficiency virus 1, MT4, 96 h, MT4 cells, cell titer glo readout at 96 hours, 10 point dose response; read-out: HIV MT4 Assay IC50.
Format: cell-based
Method in brief: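 MT-4 cells infected with HIV, with inhibition readout by CellTiter-Glo luminescence at 96 h relative to no-compound control. Cytotoxicity measured in parallel under the same conditions. IC50 from a 10-point, 3-4-fold dilution series spanning >1000-fold, fitted with a four-parameter logistic equation.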
Work on `Cc1nc2c(cc(CN3CCCCC3)n2C)c(-c2cc(F)c3c(c2C)CCCO3)c1[C@H](OC(C)(C)C)C(=O)O` (atropisomer, axis not shown; (M)) [Example 288, (2S)(M)-2-(tert-butoxy)-2-(-4-(8-fluoro-5-methylchroman-6-yl)-1,6-dimethyl-2-(piperidin-1-ylmethyl)-1H-pyrrolo[2,3-b]pyridin-5-yl)acetic acid] yielded an IC50 of 250 nM.
Molecule `Cc1nc2c(cc(CCC(=O)NCc3ccc(F)cc3)n2C)c(-c2cc(F)c3c(c2C)CCCO3)c1[C@H](OC(C)(C)C)C(=O)O` (atropisomer, axis not shown; (M)) [Example 297, (2S)(M) 2-(tert-butoxy)-2-((R)-4-(8-fluoro-5-methylchroman-6-yl)-2-(3-((4-fluorobenzyl)amino)-3-oxopropyl)-1,6-dimethyl-1H-pyrrolo[2,3-b]pyridin-5-yl)acetic acid] has an IC50 of 130 nM.
`Cc1nc2c(cc(-c3nnc(N4CCN(C5CCOCC5)CC4)o3)n2C)c(-c2cc(F)c3c(c2C)CCCO3)c1[C@H](OC(C)(C)C)C(=O)O` (atropisomer, axis not shown; (M)) [Example 300, (2S)(M)-2-(tert-butoxy)-2-(-4-(8-fluoro-5-methylchroman-6-yl)-1,6-dimethyl-2-(5-(4-(tetrahydro-2H-pyran-4-yl)piperazin-1-yl)-1,3,4-oxadiazol-2-yl)-1H-pyrrolo[2,3-b]pyridin-5-yl)acetic acid] showed an IC50 of 10.4 nM.
`Cc1nc2c(cc(-c3nc(-c4ccc5c(cnn5C)c4)no3)n2C)c(-c2cc(F)c3c(c2C)CCCO3)c1[C@H](OC(C)(C)C)C(=O)O` (atropisomer, axis not shown; (M)) [Example 354, (2S)(M)-2-(tert-butoxy)-2-(4-(8-fluoro-5-methylchroman-6-yl)-1,6-dimethyl-2-(3-(1-methyl-1H-indazol-5-yl)-1,2,4-oxadiazol-5-yl)-1H-pyrrolo[2,3-b]pyridin-5-yl)acetic acid] gave an IC50 of 5 nM.
`Cc1nc2c(cc(-c3nc(-c4ccc5c(cnn5C)c4)ns3)n2C)c(-c2cc(F)c3c(c2C)CCCO3)c1[C@H](OC(C)(C)C)C(=O)O` (atropisomer, axis not shown; (M)) [Example 355, (2S)(M)-2-(tert-butoxy)-2-(-4-(8-fluoro-5-methylchroman-6-yl)-1,6-dimethyl-2-(3-(1-methyl-1H-indazol-5-yl)-1,2,4-thiadiazol-5-yl)-1H-pyrrolo[2,3-b]pyridin-5-yl)acetic acid] showed an IC50 of 4.7 nM.
For `Cc1nc2c(cc(-c3nnc(-c4ccc5c(cnn5C)c4)s3)n2C)c(-c2cc(F)c3c(c2C)CCCO3)c1[C@H](OC(C)(C)C)C(=O)O` (atropisomer, axis not shown; (M)) [Example 356, (2S)(M)-2-(tert-butoxy)-2-(-4-(8-fluoro-5-methylchroman-6-yl)-1,6-dimethyl-2-(5-(1-methyl-1H-indazol-5-yl)-1,3,4-thiadiazol-2-yl)-1H-pyrrolo[2,3-b]pyridin-5-yl)acetic acid], the IC50 was 9.8 nM.
With `Cc1nc2c(cc(-c3nsc(-c4ccc5c(cnn5C)c4)n3)n2C)c(-c2cc(F)c3c(c2C)CCCO3)c1[C@H](OC(C)(C)C)C(=O)O` (atropisomer, axis not shown; (M)) [Example 357, (2S)(M)-2-(tert-butoxy)-2-(-4-(8-fluoro-5-methylchroman-6-yl)-1,6-dimethyl-2-(5-(1-methyl-1H-indazol-5-yl)-1,2,4-thiadiazol-3-yl)-1H-pyrrolo[2,3-b]pyridin-5-yl)acetic acid] the IC50 was 4 nM.
`Cc1nc2c(cc(-c3nccc(N4CCN(C5CCOCC5)CC4)n3)n2C)c(-c2cc(F)c3c(c2C)CCCO3)c1[C@H](OC(C)(C)C)C(=O)O` (atropisomer, axis not shown; (M)) [Example 358] was tested, and the IC50 was 17.6 nM.
Work on `Cc1nc2c(cc(-c3nc(N4C[C@@H](C)O[C@@H](C)C4)no3)n2C)c(-c2cc(F)c3c(c2C)CCCO3)c1[C@H](OC(C)(C)C)C(=O)O` (atropisomer, axis not shown; (M)) [Example 410, (2S)(M)-2-(tert-butoxy)-2-(-2-(3-((2S,6R)-2,6-dimethylmorpholino)-1,2,4-oxadiazol-5-yl)-4-(8-fluoro-5-methylchroman-6-yl)-1,6-dimethyl-1H-pyrrolo[2,3-b]pyridin-5-yl)acetic acid] yielded an IC50 of 3.1 nM.
Work on `Cc1nc2c(cc(-c3noc(N4CCC(C)CC4)n3)n2C)c(-c2cc(F)c3c(c2C)CCCO3)c1[C@H](OC(C)(C)C)C(=O)O` (atropisomer, axis not shown; (M)) [Example 411, (2S)(M)-2-(tert-butoxy)-2-(-4-(8-fluoro-5-methylchroman-6-yl)-1,6-dimethyl-2-(5-(4-methylpiperidin-1-yl)-1,2,4-oxadiazol-3-yl)-1H-pyrrolo[2,3-b]pyridin-5-yl)acetic acid] yielded an IC50 of 7.6 nM.
With `Cc1nc2c(cc(CNC(=O)c3ccc4c(cnn4C)c3)n2C)c(-c2cc(F)c3c(c2C)CCCO3)c1[C@H](OC(C)(C)C)C(=O)O` (atropisomer, axis not shown; (M)) [Example 412, (2S)(M)-2-(tert-butoxy)-2-(-4-(8-fluoro-5-methylchroman-6-yl)-1,6-dimethyl-2-((1-methyl-1H-indazole-5-carboxamido)methyl)-1H-pyrrolo[2,3-b]pyridin-5-yl)acetic acid] the IC50 was 43.1 nM.
`COCCNC(=O)/C=C/c1cc2c(-c3cc(F)c4c(c3C)CCCO4)c([C@H](OC(C)(C)C)C(=O)O)c(C)nc2n1C` (atropisomer, axis not shown; (M)) [Example 413, (2S)(M)-2-(tert-butoxy)-2-(-4-(8-fluoro-5-methylchroman-6-yl)-2-((E)-3-((2-methoxyethyl)amino)-3-oxoprop-1-en-1-yl)-1,6-dimethyl-1H-pyrrolo[2,3-b]pyridin-5-yl)acetic acid] gave an IC50 of 148 nM.
In the case of `Cc1nc2c(cc(C(=O)C(=O)NCc3ccccc3)n2C)c(-c2cc(F)c3c(c2C)CCCO3)c1[C@H](OC(C)(C)C)C(=O)O` (atropisomer, axis not shown; (M)) [Example 420, (2S)(M)-2-(-2-(2-(benzylamino)-2-oxoacetyl)-4-(8-fluoro-5-methylchroman-6-yl)-1,6-dimethyl-1H-pyrrolo[2,3-b]pyridin-5-yl)-2-(tert-butoxy)acetic acid], the IC50 is reported as 94.6 nM.
With `Cc1nc2c(cc(-c3nnc(N4C[C@@H](C)O[C@@H](C)C4)o3)n2C)c(-c2cc(F)c3c(c2C)CCCO3)c1[C@H](OC(C)(C)C)C(=O)O` (racemic) [Example 338] the IC50 was 1.6 nM.
`Cc1nc2c(cc(-c3cc(N4C[C@@H](C)O[C@@H](C)C4)ncn3)n2C)c(-c2cc(F)c3c(c2C)CCCO3)c1[C@H](OC(C)(C)C)C(=O)O` (racemic) [Example 364] was tested, and the IC50 was 10.9 nM.
`Cc1nc2c(cc(-c3nc(N4C[C@@H](C)N[C@@H](C)C4)ns3)n2C)c(-c2cc(F)c3c(c2C)CCCO3)c1[C@H](OC(C)(C)C)C(=O)O` (racemic) [Example 397] was tested, and the IC50 was 13.1 nM.
Molecule `Cc1nc2c(cc(-c3csc(N4C[C@@H](C)O[C@@H](C)C4)n3)n2C)c(-c2cc(F)c3c(c2C)CCCO3)c1[C@H](OC(C)(C)C)C(=O)O` (racemic) [Example 409] has an IC50 of 13.4 nM.
Molecule `Cc1nc2c(cc(-c3ccnc(N4CC(N5CCOCC5)C4)c3)n2C)c(-c2cc(F)c3c(c2C)CCCO3)c1[C@H](OC(C)(C)C)C(=O)O` [Example 2, (2S)-2-(tert-butoxy)-2-[4-(8-fluoro-5-methyl-3,4-dihydro-2H-1-benzopyran-6-yl)-1,6-dimethyl-2-{2-[3-(morpholin-4-yl)azetidin-1-yl]pyridin-4-yl}-1H-pyrrolo[2,3-b]pyridin-5-yl]acetic acid] has an IC50 of 15.6 nM.
Molecule `Cc1nc2c(cc(-c3ccnc(-c4ccc5c(cnn5C)c4)c3)n2C)c(-c2ccc(Cl)cc2)c1[C@H](OC(C)(C)C)C(=O)O` [Example 15, (2S)-2-(tert-butoxy)-2-[4-(4-chlorophenyl)-1,6-dimethyl-2-[2-(1-methyl-1H-indazol-5-yl)pyridin-4-yl]-1H-pyrrolo[2,3-b]pyridin-5-yl]acetic acid] has an IC50 of 13.7 nM.
In the case of `CCCn1cc(-c2cc(-c3cc4c(-c5cc(F)c6c(c5C)CCCO6)c([C@H](OC(C)(C)C)C(=O)O)c(C)nc4n3C)ccn2)cn1` [Example 44], the IC50 is reported as 14 nM.
`Cc1nc2c(cc(-c3ccnc(-c4ccc5c(c4)ncn5C)c3)n2C)c(-c2cc(F)c3c(c2C)CCCO3)c1[C@H](OC(C)(C)C)C(=O)O` [Example 51] was tested, and the IC50 was 4 nM.
Molecule `Cc1nc2c(cc(-c3ccnc(-c4ccc5nn(C)nc5c4)c3)n2C)c(-c2cc(F)c3c(c2C)CCCO3)c1[C@H](OC(C)(C)C)C(=O)O` [Example 61] has an IC50 of 2.6 nM.
For `Cc1nc2c(cc(-c3ccnc(-c4ccc5nn(C6COC6)cc5c4)c3)n2C)c(-c2cc(F)c3c(c2C)CCCO3)c1[C@H](OC(C)(C)C)C(=O)O` [Example 64], the IC50 was 2.8 nM.
Work on `Cc1nc2c(cc(-c3ccnc(-c4ccc5c(cnn5C5COC5)c4)c3)n2C)c(-c2cc(F)c3c(c2C)CCCO3)c1[C@H](OC(C)(C)C)C(=O)O` [Example 65] yielded an IC50 of 2.4 nM.
In the case of `Cc1nc2c(cc(-c3cccc(-c4ccc5c(cnn5C)c4)n3)n2C)c(-c2cc(F)c3c(c2C)CCCO3)c1[C@H](OC(C)(C)C)C(=O)O` [Example 71], the IC50 is reported as 23.4 nM.
`Cc1cc(COc2cc(-c3cc4c(-c5cc(F)c6c(c5C)CCCO6)c([C@H](OC(C)(C)C)C(=O)O)c(C)nc4n3C)ccn2)ccn1` [Example 73] was tested, and the IC50 was 3.8 nM.
For `Cc1nc2c(cc(-c3ccnc(CNc4ncc(F)cn4)c3)n2C)c(-c2cc(F)c3c(c2C)CCCO3)c1[C@H](OC(C)(C)C)C(=O)O` [Example 74], the IC50 was 56.5 nM.
`Cc1nc2c(cc(-c3ccnc(OC4CCN(Cc5ccccc5)CC4)c3)n2C)c(-c2cc(F)c3c(c2C)CCCO3)c1[C@H](OC(C)(C)C)C(=O)O` [Example 75] gave an IC50 of 100 nM.
`Cc1nc2c(cc(-c3ccnc(CNc4ccccn4)c3)n2C)c(-c2cc(F)c3c(c2C)CCCO3)c1[C@H](OC(C)(C)C)C(=O)O` [Example 76] was tested, and the IC50 was 112 nM.
Work on `Cc1nc2c(cc(-c3ccnc(CN(C)c4ccccn4)c3)n2C)c(-c2cc(F)c3c(c2C)CCCO3)c1[C@H](OC(C)(C)C)C(=O)O` [Example 77] yielded an IC50 of 41 nM.
In the case of `Cc1nc2c(cc(-c3ccnc(-c4ccc5c(c4)OCCO5)c3)n2C)c(-c2cc(F)c3c(c2C)CCCO3)c1[C@H](OC(C)(C)C)C(=O)O` [Example 78], the IC50 is reported as 5.8 nM.
